Assay results reported in paper PMC6429214, “Design, Synthesis and Biological Evaluation of Isoxazole-Based CK1 Inhibitors Modified with Chiral Pyrrolidine Scaffolds” (Molecules, 2019).

Tests used:
Experiment in all cases: 33PanQinase panel
Assay type in all cases: biochemical
[1] = target: T1, EPHA6 (Homo sapiens, UniProt Q9UF33); conditions: EPHA6, 1 µM; read-out: Residual Activity (%)
T1 construct: purchased ProQinase
Protocol: (§1) Figure 5 Dendrogram representation of the selectivity profile of 29d at a concentration of 1 μM in a panel of 320 wild-type kinases (ProQinase, Freiburg, Germany). The residual kinase activity was determined compared to DMSO control. Images were generated using TREEspot Software Tool, DISCOVERX CORPORATION 2010.
(§2) Figure S1. X-ray crystal structure of intermediate compound 25d (ORTEP drawing with ellipsoids at 30% probability). CCDC 1589043 contains the supplementary crystallographic data for this paper. The data can be obtained free of charge from The Cambridge Crystallographic Data Centre via www.ccdc.cam.ac.uk/structures.
(§3) Table S1 Data collection, structure refinement and Ramachrandran plot results of protein crystallization of CK1δ in complex with compound 30a and 30b, respectively.
(§4) Root-mean-square deviations
(§5) Additionally allowed 2.6 2.2
(§6) Table S2. Selectivity profile of compound 29d. The inhibitor has been screened at a concentration of 1 µM over a panel of 320 wild-type protein kinases by ProQinase GmbH (Freiburg, Germany) using an activity-based radiometric 33PanQinase® assay. Results are presented as percentage of residual kinase activity relative to […]
(§7) control. The final DMSO concentration was 1 % in each reaction-mix. Classification of protein kinase families refers to Manning et al. (Manning, G.; Whyte, D. B.; Martinez, R.; Hunter, T.; Sudarsanam, S. The Protein Kinase Complement of the Human Genome. Science 2002, 298, 1912–1934): AGC = containing PKA, PKG, PKC families; […] = containing Cdk, MAPK, GSK3, CLK families; STE = homologs of yeast sterile 7, sterile 11, sterile 20 kinases; TK = tyrosine kinase; TKL = tyrosine kinase-like.
(§8) Kinase name Kinase family Residual Activity (%)

[2] = target: T2, INSR-R (Homo sapiens, UniProt P14616); conditions: read-out: Residual Activity (%)
T2 construct: purchased ProQinase
Protocol: as §1, §2, §3, §4, §5, §6, §7, §8

[3] = target: T3, TSF1 (Homo sapiens, UniProt O75716); conditions: TSF1, 1 µM; read-out: Residual Activity (%)
T3 construct: purchased ProQinase
Protocol: as §1, §2, §3, §4, §5, §6, §7, §8

[4] = target: T4, MKK4 (Homo sapiens, UniProt P45985); conditions: MKK4, 1 µM; read-out: Residual Activity (%)
T4 construct: purchased ProQinase
Protocol: as §1, §2, §3, §4, §5, §6, §7, §8

[5] = target: T5, ABL2 (Homo sapiens, UniProt P42684); conditions: ABL2, 1 µM; read-out: Residual Activity (%)
T5 construct: purchased ProQinase
Protocol: as §1, §2, §3, §4, §5, §6, §7, §8

[6] = target: T6, RIPK5 (Homo sapiens, UniProt Q6XUX3); conditions: RIPK5, 1 µM; read-out: Residual Activity (%)
T6 construct: purchased ProQinase
Protocol: as §1, §2, §3, §4, §5, §6, §7, §8

[7] = target: T7, NEK2 (Homo sapiens, UniProt P51955); conditions: NEK2, 1 µM; read-out: Residual Activity (%)
T7 construct: purchased ProQinase
Protocol: as §1, §2, §3, §4, §5, §6, §7, §8

[8] = target: T8, MYLK (Homo sapiens, UniProt Q15746); conditions: read-out: Residual Activity (%)
T8 construct: purchased ProQinase
Protocol: as §1, §2, §3, §4, §5, §6, §7, §8

[9] = target: T9, EPHB3 (Homo sapiens, UniProt P54753); conditions: EPHB3, 1 µM; read-out: Residual Activity (%)
T9 construct: purchased ProQinase
Protocol: as §1, §2, §3, §4, §5, §6, §7, §8

[10] = target: T10, MYLK3 (Homo sapiens, UniProt Q32MK0); conditions: MYLK3, 1 µM; read-out: Residual Activity (%)
T10 construct: purchased ProQinase
Protocol: as §1, §2, §3, §4, §5, §6, §7, §8

[11] = target: T11, LIMK1 (Homo sapiens, UniProt P53667); conditions: LIMK1, 1 µM; read-out: Residual Activity (%)
T11 construct: purchased ProQinase
Protocol: as §1, §2, §3, §4, §5, §6, §7, §8

[12] = target: T12, PKC-beta2 (Homo sapiens, UniProt P05771); conditions: PKC-beta2, 1 µM; read-out: Residual Activity (%)
T12 construct: purchased ProQinase
Protocol: as §1, §2, §3, §4, §5, §6, §7, §8

[13] = target: T13, CAMK2G (Homo sapiens, UniProt Q13555); conditions: read-out: Residual Activity (%)
T13 construct: purchased ProQinase
Protocol: as §1, §2, §3, §4, §5, §6, §7, §8

[14] = target: T14, NEK3 (Homo sapiens, UniProt P51956); conditions: NEK3, 1 µM; read-out: Residual Activity (%)
T14 construct: purchased ProQinase
Protocol: as §1, §2, §3, §4, §5, §6, §7, §8

[15] = target: T15, NEK4 (Homo sapiens, UniProt P51957); conditions: NEK4, 1 µM; read-out: Residual Activity (%)
T15 construct: purchased ProQinase
Protocol: as §1, §2, §3, §4, §5, §6, §7, §8

[16] = target: T16, CHK2 (Homo sapiens, UniProt O96017); conditions: CHK2, 1 µM; read-out: Residual Activity (%)
T16 construct: purchased ProQinase
Protocol: as §1, §2, §3, §4, §5, §6, §7, §8

[17] = target: T17, RON (Homo sapiens, UniProt Q04912); conditions: read-out: Residual Activity (%)
T17 construct: purchased ProQinase
Protocol: as §1, §2, §3, §4, §5, §6, §7, §8

[18] = target: T18, p38-alpha (Homo sapiens, UniProt Q16539); conditions: read-out: Residual Activity (%)
T18 construct: purchased ProQinase
Protocol: as §1, §2, §3, §4, §5, §6, §7, §8

[19] = target: T19, PRKG2 (Homo sapiens, UniProt Q13237); conditions: PRKG2, 1 µM; read-out: Residual Activity (%)
T19 construct: purchased ProQinase
Protocol: as §1, §2, §3, §4, §5, §6, §7, §8

[20] = target: T20, PAK7 (Homo sapiens, UniProt Q9P286); conditions: PAK7, 1 µM; read-out: Residual Activity (%)
T20 construct: purchased ProQinase
Protocol: as §1, §2, §3, §4, §5, §6, §7, §8

[21] = target: T21, EIF2AK3 (Homo sapiens, UniProt Q9NZJ5); conditions: EIF2AK3, 1 µM; read-out: Residual Activity (%)
T21 construct: purchased ProQinase
Protocol: as §1, §2, §3, §4, §5, §6, §7, §8

[22] = target: T22, MARK1 (Homo sapiens, UniProt Q9P0L2); conditions: MARK1, 1 µM; read-out: Residual Activity (%)
T22 construct: purchased ProQinase
Protocol: as §1, §2, §3, §4, §5, §6, §7, §8

[23] = target: T23, ACV-R1 (Homo sapiens, UniProt Q04771); conditions: ACV-R1, 1 µM; read-out: Residual Activity (%)
T23 construct: purchased ProQinase
Protocol: as §1, §2, §3, §4, §5, §6, §7, §8

[24] = target: T24, PKC-theta (Homo sapiens, UniProt Q04759); conditions: read-out: Residual Activity (%)
T24 construct: purchased ProQinase
Protocol: as §1, §2, §3, §4, §5, §6, §7, §8

[25] = target: T25, SGK3 (Homo sapiens, UniProt Q96BR1); conditions: SGK3, 1 µM; read-out: Residual Activity (%)
T25 construct: purchased ProQinase
Protocol: as §1, §2, §3, §4, §5, §6, §7, §8

[26] = target: T26, HIPK2 (Homo sapiens, UniProt Q9H2X6); conditions: HIPK2, 1 µM; read-out: Residual Activity (%)
T26 construct: purchased ProQinase
Protocol: as §1, §2, §3, §4, §5, §6, §7, §8

[27] = target: T27, MKNK1 (Homo sapiens, UniProt Q9BUB5); conditions: MKNK1, 1 µM; read-out: Residual Activity (%)
T27 construct: purchased ProQinase
Protocol: as §1, §2, §3, §4, §5, §6, §7, §8

T23 sequence (Q04771 21-509): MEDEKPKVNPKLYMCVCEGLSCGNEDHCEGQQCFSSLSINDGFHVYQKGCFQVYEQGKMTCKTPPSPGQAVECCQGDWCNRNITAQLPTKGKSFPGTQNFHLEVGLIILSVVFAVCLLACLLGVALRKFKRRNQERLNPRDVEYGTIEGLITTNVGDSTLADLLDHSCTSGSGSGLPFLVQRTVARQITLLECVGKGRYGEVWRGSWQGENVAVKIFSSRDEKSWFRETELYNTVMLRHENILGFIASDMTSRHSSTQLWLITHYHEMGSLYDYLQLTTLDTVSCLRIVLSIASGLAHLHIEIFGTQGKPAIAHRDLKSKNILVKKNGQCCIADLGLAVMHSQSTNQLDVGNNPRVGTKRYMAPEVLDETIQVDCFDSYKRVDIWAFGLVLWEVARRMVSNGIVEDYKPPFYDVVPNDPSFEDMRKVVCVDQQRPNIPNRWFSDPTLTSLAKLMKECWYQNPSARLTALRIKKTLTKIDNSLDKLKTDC
T4 sequence (P45985 whole entry): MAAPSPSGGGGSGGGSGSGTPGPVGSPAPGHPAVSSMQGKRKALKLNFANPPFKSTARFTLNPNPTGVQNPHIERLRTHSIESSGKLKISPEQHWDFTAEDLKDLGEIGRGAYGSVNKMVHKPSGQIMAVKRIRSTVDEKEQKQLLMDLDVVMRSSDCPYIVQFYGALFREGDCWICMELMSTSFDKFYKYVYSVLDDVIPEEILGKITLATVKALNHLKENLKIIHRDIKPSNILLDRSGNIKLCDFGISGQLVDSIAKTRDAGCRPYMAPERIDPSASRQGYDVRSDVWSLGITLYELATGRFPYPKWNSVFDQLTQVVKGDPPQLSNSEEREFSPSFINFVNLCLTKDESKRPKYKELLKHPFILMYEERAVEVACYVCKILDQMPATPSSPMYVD
T16 sequence (O96017 whole entry): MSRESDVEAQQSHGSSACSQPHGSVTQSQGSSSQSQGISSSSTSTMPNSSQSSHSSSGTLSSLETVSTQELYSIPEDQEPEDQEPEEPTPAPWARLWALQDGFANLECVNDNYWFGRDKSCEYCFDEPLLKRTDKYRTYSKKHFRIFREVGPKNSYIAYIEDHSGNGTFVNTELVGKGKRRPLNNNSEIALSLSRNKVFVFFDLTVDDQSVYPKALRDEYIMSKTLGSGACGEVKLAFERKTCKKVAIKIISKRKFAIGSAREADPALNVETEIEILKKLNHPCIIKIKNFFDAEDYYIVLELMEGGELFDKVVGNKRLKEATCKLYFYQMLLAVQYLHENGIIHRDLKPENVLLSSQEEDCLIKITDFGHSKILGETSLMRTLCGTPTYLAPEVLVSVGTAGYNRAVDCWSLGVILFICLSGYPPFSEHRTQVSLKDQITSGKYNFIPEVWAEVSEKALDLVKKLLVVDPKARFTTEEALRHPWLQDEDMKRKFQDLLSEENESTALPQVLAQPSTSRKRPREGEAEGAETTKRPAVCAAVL
T10 sequence (Q32MK0 whole entry): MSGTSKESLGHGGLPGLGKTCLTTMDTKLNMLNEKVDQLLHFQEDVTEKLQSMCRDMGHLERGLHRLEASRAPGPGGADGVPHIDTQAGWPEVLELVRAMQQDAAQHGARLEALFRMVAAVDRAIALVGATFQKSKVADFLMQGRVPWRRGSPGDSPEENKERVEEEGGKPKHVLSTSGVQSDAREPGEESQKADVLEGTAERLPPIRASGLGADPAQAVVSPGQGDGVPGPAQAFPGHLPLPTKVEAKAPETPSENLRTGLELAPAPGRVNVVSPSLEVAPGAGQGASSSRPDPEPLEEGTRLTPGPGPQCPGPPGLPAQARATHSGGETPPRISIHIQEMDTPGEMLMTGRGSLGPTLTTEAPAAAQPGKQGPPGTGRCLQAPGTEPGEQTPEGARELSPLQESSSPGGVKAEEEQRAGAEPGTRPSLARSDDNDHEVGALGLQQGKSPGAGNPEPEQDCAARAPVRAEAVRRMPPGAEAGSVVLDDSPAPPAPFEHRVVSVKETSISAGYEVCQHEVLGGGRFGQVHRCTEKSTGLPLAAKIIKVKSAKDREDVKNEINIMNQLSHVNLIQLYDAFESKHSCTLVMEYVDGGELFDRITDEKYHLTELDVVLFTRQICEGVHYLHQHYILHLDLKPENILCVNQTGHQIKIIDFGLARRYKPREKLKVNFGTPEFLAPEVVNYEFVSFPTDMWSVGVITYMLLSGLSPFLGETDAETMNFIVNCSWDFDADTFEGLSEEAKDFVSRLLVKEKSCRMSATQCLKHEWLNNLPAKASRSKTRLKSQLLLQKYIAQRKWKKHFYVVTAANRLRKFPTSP
T12 sequence (P05771 1-673 isoform P05771-2): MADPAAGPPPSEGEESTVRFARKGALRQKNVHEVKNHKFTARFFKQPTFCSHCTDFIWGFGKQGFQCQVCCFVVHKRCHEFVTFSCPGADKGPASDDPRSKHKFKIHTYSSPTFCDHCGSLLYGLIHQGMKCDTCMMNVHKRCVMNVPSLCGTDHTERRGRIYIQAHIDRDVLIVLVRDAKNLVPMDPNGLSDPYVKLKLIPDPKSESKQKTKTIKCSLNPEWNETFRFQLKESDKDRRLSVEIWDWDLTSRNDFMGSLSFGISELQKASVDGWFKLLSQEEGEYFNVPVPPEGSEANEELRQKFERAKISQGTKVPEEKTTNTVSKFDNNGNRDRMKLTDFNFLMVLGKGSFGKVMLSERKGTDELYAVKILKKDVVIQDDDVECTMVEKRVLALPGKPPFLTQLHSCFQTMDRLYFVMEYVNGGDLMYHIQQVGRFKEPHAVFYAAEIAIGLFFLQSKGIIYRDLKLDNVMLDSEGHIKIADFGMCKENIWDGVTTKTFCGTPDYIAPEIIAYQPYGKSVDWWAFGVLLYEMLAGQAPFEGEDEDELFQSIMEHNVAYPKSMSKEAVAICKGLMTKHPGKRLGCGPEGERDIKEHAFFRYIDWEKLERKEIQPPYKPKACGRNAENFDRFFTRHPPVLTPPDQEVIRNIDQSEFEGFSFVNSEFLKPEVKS
T21 sequence (Q9NZJ5 30-1116): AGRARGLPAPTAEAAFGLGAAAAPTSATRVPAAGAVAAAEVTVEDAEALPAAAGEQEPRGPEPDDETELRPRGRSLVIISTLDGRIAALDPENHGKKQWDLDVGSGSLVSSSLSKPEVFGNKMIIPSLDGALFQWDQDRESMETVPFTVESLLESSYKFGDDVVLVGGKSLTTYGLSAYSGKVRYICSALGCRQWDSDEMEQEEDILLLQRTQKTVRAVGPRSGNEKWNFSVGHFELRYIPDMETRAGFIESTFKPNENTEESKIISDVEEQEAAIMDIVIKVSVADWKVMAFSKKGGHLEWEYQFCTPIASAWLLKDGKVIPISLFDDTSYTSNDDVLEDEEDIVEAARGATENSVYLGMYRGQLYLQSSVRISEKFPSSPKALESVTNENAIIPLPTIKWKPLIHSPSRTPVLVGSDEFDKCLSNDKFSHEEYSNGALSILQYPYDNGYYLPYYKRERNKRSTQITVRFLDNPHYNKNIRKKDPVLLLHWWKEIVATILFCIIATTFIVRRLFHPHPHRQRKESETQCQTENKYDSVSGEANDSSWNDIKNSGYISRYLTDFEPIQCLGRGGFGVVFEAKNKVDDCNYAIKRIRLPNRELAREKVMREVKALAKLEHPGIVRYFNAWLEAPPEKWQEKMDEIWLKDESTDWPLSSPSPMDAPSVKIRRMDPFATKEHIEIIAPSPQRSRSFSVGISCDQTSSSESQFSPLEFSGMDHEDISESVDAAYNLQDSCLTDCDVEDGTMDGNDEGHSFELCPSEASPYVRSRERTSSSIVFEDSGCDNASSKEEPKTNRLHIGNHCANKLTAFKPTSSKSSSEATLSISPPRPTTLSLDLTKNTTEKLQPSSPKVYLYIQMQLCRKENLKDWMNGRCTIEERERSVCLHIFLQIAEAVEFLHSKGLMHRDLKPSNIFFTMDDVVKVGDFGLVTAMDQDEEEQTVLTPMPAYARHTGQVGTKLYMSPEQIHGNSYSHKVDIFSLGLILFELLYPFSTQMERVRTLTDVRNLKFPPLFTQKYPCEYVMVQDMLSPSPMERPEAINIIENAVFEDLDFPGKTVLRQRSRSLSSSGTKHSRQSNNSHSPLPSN
T3 sequence (O75716 whole entry): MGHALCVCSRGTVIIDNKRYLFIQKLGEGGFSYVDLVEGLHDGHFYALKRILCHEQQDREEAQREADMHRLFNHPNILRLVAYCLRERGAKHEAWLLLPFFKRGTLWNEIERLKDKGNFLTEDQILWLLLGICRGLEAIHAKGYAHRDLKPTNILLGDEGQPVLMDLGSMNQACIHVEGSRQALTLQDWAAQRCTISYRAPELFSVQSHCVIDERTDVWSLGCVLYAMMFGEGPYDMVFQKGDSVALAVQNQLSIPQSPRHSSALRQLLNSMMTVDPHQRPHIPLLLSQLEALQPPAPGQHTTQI
T18 sequence (Q16539 whole entry): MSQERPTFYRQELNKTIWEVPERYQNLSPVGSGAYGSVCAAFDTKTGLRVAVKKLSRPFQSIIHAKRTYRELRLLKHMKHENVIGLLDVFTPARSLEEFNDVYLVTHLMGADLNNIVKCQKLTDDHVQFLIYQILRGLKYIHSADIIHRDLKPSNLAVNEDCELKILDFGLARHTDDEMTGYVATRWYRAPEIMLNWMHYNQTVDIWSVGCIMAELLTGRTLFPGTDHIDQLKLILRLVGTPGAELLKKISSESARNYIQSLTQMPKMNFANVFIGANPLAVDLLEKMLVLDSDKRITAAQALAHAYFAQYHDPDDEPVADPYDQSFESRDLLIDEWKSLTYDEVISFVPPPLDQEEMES

## COc1ccc(-c2cc(C(=O)Nc3cc(-c4c(-c5ccc(F)cc5)noc4C(C)C)ccn3)n(CC3NCC(O)C3O)c2)cc1 (stereo not drawn) [29d]
[1]
  remaining activity at 1 µM: 108%
[2]
  remaining activity at 1 µM: 89%
[3]
  remaining activity at 1 µM: 86%
[4]
  remaining activity at 1 µM: 109%
[5]
  remaining activity at 1 µM: 110%
[6]
  remaining activity at 1 µM: 99%
[7]
  remaining activity at 1 µM: 89%
[8]
  remaining activity at 1 µM: 106%
[9]
  remaining activity at 1 µM: 138%
[10]
  remaining activity at 1 µM: 87%
[11]
  remaining activity at 1 µM: 105%
[12]
  remaining activity at 1 µM: 118%
[13]
  remaining activity at 1 µM: 119%
[14]
  remaining activity at 1 µM: 96%
[15]
  remaining activity at 1 µM: 108%
[16]
  remaining activity at 1 µM: 97%
[17]
  remaining activity at 1 µM: 115%
[18]
  remaining activity at 1 µM: 17%
[19]
  remaining activity at 1 µM: 100%
[20]
  remaining activity at 1 µM: 97%
[21]
  remaining activity at 1 µM: 104%
[22]
  remaining activity at 1 µM: 80%
[23]
  remaining activity at 1 µM: 105%
[24]
  remaining activity at 1 µM: 101%
[25]
  remaining activity at 1 µM: 97%
[26]
  remaining activity at 1 µM: 83%
[27]
  remaining activity at 1 µM: 82%
